In one test the test system is E. coli ATCC BAA-2452. In words: microbe, parasite or virus in culture. The class given is cell-based. The following applies: Escherichia coli, ATCCBAA2452, read-out: MIC alone (MICA vancomycin, MICB D-11). The method, then: (§1) MIC tests were performed in triplicate by liquid growth inhibition microdilution assays in sterile polypropylene microtiter plates according to the Clinical and Laboratory Standards Institute (CLSI) guideline for bacteria that grow aerobically. Briefly, the indicator strains were first streaked on the appropriate agar plate, and then single colonies were picked and incubated overnight in liquid broth. The final inoculum of bacteria was 5*10^5 CFU/mL prepared in CAMHB (cationic adjusted Mueller–Hinton broth, Sigma-Aldrich) or CAMHB plus 5% of lysed horse blood (TCS Biosciences, Buckingham, UK) in the case of S. pneumoniae. The antimicrobials were 2-fold serially diluted and 50 µL diluted bacterial suspension was added to each well to make the final volume 100 µL. The microtiter plates and the count plates were incubated at 37 °C for 16–20 h without shaking. Growth inhibition was assessed by measuring the OD600 using a microplate reader (Tecan Infinity F200). The lowest concentration of the antimicrobials that inhibits visible growth of the indicator strain is identified as the MIC value.

Another test has as its system P. aeruginosa PA14. Briefly: microbe, parasite or virus in culture. The class given is cell-based. The following applies: Pseudomonas aeruginosa, PA14, read-out: MIC alone (MICA vancomycin, MICB D-11). The method, then:
as §1

The test system of the next test is A. baumannii ATCC 17978. In words: microbe, parasite or virus in culture. It counts as cell-based. As to conditions: Acinetobacter baumannii, ATCC17978, read-out: MIC alone (MICA vancomycin, MICB D-11). The method, then: as §1
For a further test, the system named is P. aeruginosa ATCC 27853. In words: microbe, parasite or virus in culture. As to conditions: Pseudomonas aeruginosa, ATCC27853, read-out: MIC alone (MICA vancomycin, MICB D-11). It counts as cell-based. The method, then: as §1
The next test deals with K. pneumoniae ATCC700603. Briefly: microbe, parasite or virus in culture. It counts as cell-based. As to conditions: Klebsiella pneumoniae, ATCC700603, read-out: MIC alone (MICA vancomycin, MICB D-11). The method, then:
as §1

The test system of test [1] is A. baumannii ATCC BAA-1605. Briefly: microbe, parasite or virus in culture. As to conditions: Acinetobacter baumannii, ATCCBAA1605, read-out: MIC alone (MICA vancomycin, MICB D-11). The class given is cell-based. The method, then:
as §1

Another test relates to E. coli ATCC 25922. In words: microbe, parasite or virus in culture. It counts as cell-based. The following applies: Escherichia coli, ATCC25922, read-out: MIC alone (MICA vancomycin, MICB D-11). The method, then: as §1
Another test deals with E. coli B1927. Briefly: microbe, parasite or virus in culture. As to conditions: Escherichia coli, B1927, read-out: MIC alone (MICA vancomycin, MICB D-11). The class given is cell-based. The method, then:
as §1

The next test concerns K. pneumoniae B1945. Briefly: microbe, parasite or virus in culture. The class given is cell-based. The following applies: Klebsiella pneumoniae, B1945, read-out: MIC alone (MICA vancomycin, MICB D-11). The method, then:
as §1

The test system of the next test is P. aeruginosa B1954. In words: microbe, parasite or virus in culture. It counts as cell-based. As to conditions: Pseudomonas aeruginosa, B1954, read-out: MIC alone (MICA vancomycin, MICB D-11). On the procedure: as §1
For test [2], the system named is P. aeruginosa ATCC BAA-2108. In words: microbe, parasite or virus in culture. The class given is cell-based. The following applies: Pseudomonas aeruginosa, ATCCBAA2108, read-out: MIC alone (MICA vancomycin, MICB D-11). The method, then:
as §1

The subject of a further test is A. baumannii B2026. In words: microbe, parasite or virus in culture. As to conditions: Acinetobacter baumannii, B2026, read-out: MIC alone (MICA vancomycin, MICB D-11). It counts as cell-based. The method, then: as §1
In test [3] the test system is K. pneumoniae ATCC BAA-2524. Briefly: microbe, parasite or virus in culture. It counts as cell-based. The following applies: Klebsiella pneumoniae, ATCCBAA2524, read-out: MIC alone (MICA vancomycin, MICB D-11). The method, then: as §1
Test [4] deals with all the Gram-negative strains tested. Briefly: organism not typed. On the procedure: as §1
(§2) The condition for the tests and the analysis of the plates were performed as described above for the MIC tests.
Hemolytic activity was determined with fresh human red blood cells (hRBCs)[28]. The hRBCs were centrifuged (1000×g, 5 min) and the supernatant was discarded. The pellets were washed three times with PBS and diluted in PBS to make the cell stock solution with a cell density of 2*10^8 cells/mL. […] 1% Triton X-100 and PBS were used as controls. […] The supernatant was transferred to a new 96-well plate and hemolysis was monitored by measuring the absorbance at 450 nm (OD450). Hemolysis levels were calculated as percentage. % hemolysis = 100 × (As−A0)/(At−A0), where As, A0, and At are the absorbance of the hRBCs suspension in PBS with antimicrobial agents (As), without antimicrobial agents (A0), and with 1% Triton X-100 (At). […] For the TI calculation (TI = MHC/GM), other factors as the GM (geometric mean of MIC value of all the Gram-negative strains tested) were calculated.

The test system of a further test is K. pneumoniae LMG 20218. Briefly: microbe, parasite or virus in culture. The following applies: Klebsiella pneumoniae, LMG20218. The method, then:
as §1, §2

The subject of the next test is A. baumannii LMG 01041. Briefly: microbe, parasite or virus in culture. The following applies: Acinetobacter baumannii, LMG01041. The method, then:
as §1, §2

Another test has as its system P. aeruginosa LMG 6395. In words: microbe, parasite or virus in culture. As to conditions: Pseudomonas aeruginosa, LMG6395. On the procedure: as §1, §2
The test system of another test is E. aerogenes LMG 02094. Briefly: microbe, parasite or virus in culture. As to conditions: Klebsiella aerogenes, LMG02094. The method, then: as §1, §2
The subject of another test is E. coli LMG 15862. In words: microbe, parasite or virus in culture. As to conditions: Escherichia coli, LMG15862. The method, then: as §1, §2
Test [5] relates to five Gram-negative strains. In words: Bactericidal effect testing. It counts as cell-based. As to conditions: 10-fold MIC (alone or in combination), CAMHB, 37 °C, 3 h, plating on LB agar; no colonies of any of the five strains. On the procedure:
After that, 50 µL of a 10^3-fold diluted sample were plated on LB agar[59].

In brackets after ≈: the same amount, converted by molar mass.

On to `CN[C@H](CC(C)C)C(=O)N[C@H]1C(=O)N[C@@H](CC(N)=O)C(=O)N[C@H]2C(=O)N[C@H]3C(=O)N[C@H](C(=O)N[C@H](C(=O)O)c4cc(O)cc(O)c4-c4cc3ccc4O)[C@H](O)c3ccc(c(Cl)c3)Oc3cc2cc(c3O[C@@H]2O[C@H](CO)[C@@H](O)[C@H](O)[C@H]2O[C@H]2C[C@](C)(N)[C@H](O)[C@H](C)O2)Oc2ccc(cc2Cl)[C@H]1O` [Vancomycin], for which the MIC with E. coli ATCC BAA-2452 was > 88.3 µM; in the test with P. aeruginosa PA14 it was 88.3 µM (≈ 128 µg/mL); with A. baumannii ATCC 17978 it was 88.3 µM (≈ 128 µg/mL); with P. aeruginosa ATCC 27853 it was > 88.3 µM; with K. pneumoniae ATCC700603, > 88.3 µM; in [1] it was 44.2 µM (≈ 64 µg/mL). The MIC in the test with E. coli ATCC 25922 was > 88.3 µM; with E. coli B1927 it was 88.3 µM (≈ 128 µg/mL); in the test on K. pneumoniae B1945, > 88.3 µM; in the test with P. aeruginosa B1954, 88.3 µM (≈ 128 µg/mL); in test [2], > 88.3 µM; with A. baumannii B2026, 22.1 µM (≈ 32 µg/mL). In addition, the MIC in [3] was > 88.3 µM; in test [4] (read-out: GM, MIC geometric mean against all the Gram-negative strains tested), 87.7 µM (≈ 127 µg/mL); in the test with K. pneumoniae LMG 20218 it was 128 µM (≈ 186 µg/mL); against A. baumannii LMG 01041, 32 µM (≈ 46.4 µg/mL); against P. aeruginosa LMG 6395, 128 µM (≈ 186 µg/mL); against E. aerogenes LMG 02094, 192 µM (≈ 278 µg/mL). In addition, the MIC against E. coli LMG 15862 is 64 µM (≈ 92.8 µg/mL). In addition, the “increase of MIC against Gram-negative pathogens when LPS was in the medium” value in test [4] (LPS 1 mg/mL, vancomycin: except against A. baumannii) was found to be 2 fold. Further, the bactericidal effect entry in test [5] is “bactericidal”.
